Reference: US12570643B2, “3-aryloxy-3-five-membered heteroaryl propylamine compound, and crystal form and use thereof” (Shanghai Leado Pharmatech Co. Ltd., priority 2019, dated 2026)

Tests used:
[1] = Neurocytotoxicity (CCK-8 cytotoxicity test); format: cell-based; conditions: human, SH-SY5Y cells
Method: (§1) HepG-2 and SH-SY5Y cells were prepared and placed in 10 cm dish and incubated at 37° C., 5% CO2 in a cell incubator; the cells were digested with trypsinize, resuspended and then counted. Based on a system of 100 μl/well, 8000 cells were transferred to a 96-well plate. The cells were incubated in a 37° C., 5% CO2 cell incubator for 24 hours; a gradient concentration system of compound I-1 (prepared in Example 2) was prepared, 2 times diluted, the system was 100 μl/well. The supernatant in the 96-well plate cell culture system on the first day was removed, and a fresh prepared drug concentration system was added to the corresponding culture plate wells culturing cells (set up duplicate wells). […] After completion of the culture, the supernatant was removed from the cell culture system of the 96-well plate, 100 μl of detection solution (medium containing 10% CCK-8) was add to each well, and incubated in a cell incubator at 37° C. and 5% CO2 for 1 hour, then taken it out and measured the absorbance at 450 nm with a microplate reader. Data were processed, cytotoxicity was calculated, and IC50 was calculated by GraphPad Prism. […]
(§2) A (dosing): absorbance of the well having cells, CCK-8 solution and drug solution
(§3) A (blank): absorbance of the well having medium and CCK-8 solution, without cells.
(§4) A (0 dosing): absorbance of the well having cells and CCK-8 solution, without drug solution […]

[2] = tested on: formalin pain model in mice; test: Formalin pain model in mice; format: in vivo, C57BL/6 mice
Text: 150 C57BL/6 mice (male, 9 weeks) were randomly divided into 15 groups with 10 mice for each group, and were used for the analgesic activity test of 3 compounds in the formalin pain model in mice: the compound I-1 group (compound I-1 prepared in Example 2, its hydrochloride was used in the experiment), the S-duloxetine group (its hydrochloride was used in the experiment) and the compound C1 group (compound C1 prepared in Comparative Example 1, its hydrochloride was used in the experiment), respectively. Before the start of the experiment, the mice were allowed to adapt to the experimental environment for 72 hours, during which there was no need to fast for food or water. The tested drugs were administrated by intraperitoneal injection, and the doses were as follows: • The compound I-1 group: blank Vehicle (blank normal saline control), 0.1 mg/kg, 0.5 mg/kg, 1 mg/kg, 5 mg/kg and 10 mg/kg; • The S-duloxetine group: blank Vehicle (blank normal saline control), 1 mg/kg, 5 mg/kg, 10 mg/kg and 20 mg/kg; • The Compound C1 group: blank Vehicle (blank normal saline control), 0.1 mg/kg, 0.5 mg/kg, 1 mg/kg, 5 mg/kg and 10 mg/kg.
After the administration, the mice were placed in a transparent, ventilated plexiglass cylinder, and 1 hour later, 20 μl of 4% formalin solution was injected into the left hind foot plantar of each group of mice with a micro-injector, and foot pain response in mice were recorded in real time with a miniature camera. The length of time of licking the left foot was used as an indicator of pain response, the licking time were observed and recorded during two periods of 0-10 min (phase I) and 10-60 min (phase II) respectively, for statistical analysis, and the half effective dose (ED50) of the 3 compounds were calculated: ED50 refers to the drug dose that reduces the licking time by half compared with the blank control group. The smaller the ED50 value is, the lower the effective analgesic dose of the compound is and the better its analgesic effect is.

[3] = tested on: acetic acid writhing pain model in mice; test: Acetic acid writhing pain model in mice; format: in vivo, ICR mice
Method: ICR mice, male, 22-25 g, were fasted for food 2 h before administration, but can have water. All ICR mice were weighed and randomly grouped with the number of animals>10 per group. […] The mice were administered via intragastric administration according to the weight of mice. 1.5% acetic acid solution (0.1 ml/10 g) was intraperitoneally injected at 1 hour after administration, and the number of times of visceral pain in each group within 30 minutes was observed, the mice were counted once when the abdomen was concave, the trunk and hind legs were extended and the hips were elevated, and the number of times of these phenomena occurred within 30 min was finally counted.

HepG2 cells = test: Hepatocyte toxicity (CCK-8 cytotoxicity test); format: cell-based; conditions: Homo sapiens, 72 hours, read-out: hepatotoxicity (IC50)
Method: as §1, §2, §3, §4

## CNCC[C@@H](Oc1cccc2ccoc12)c1cccs1 [Compound I-1, (R)-3-(benzofuran-7-yloxy)-N-methyl-3-(thiophen-2-yl)propan-1-amine]
[1]
  IC50 at 72 h: ~101 µM
[2]; Mus musculus, ip, intraperitoneal, phase II (10-60 min), dose that halves licking time vs blank control, read-out: analgesic potency ED50 in phase II pain
  ED50: 0.26 mg/kg
[2]; phase II pain, formalin model in mice
  ED50 times stronger than that of C1 compound: 8.5 times
[3]; 5 mg/kg intragastric
  number of visceral pains lower than normal saline control group: 50%
[3]; Mus musculus, po, intragastric, mice, read-out: half effective dose (ED50) in acetic acid writhing model
  ED50: < 5 mg/kg
HepG2 cells
  IC50: ~114 µM
